Legend:
Test in all cases: relative viability (nuclei count vs DMSO), 5 days (fraction); higher = more cells survive
COR-L 105 = system: COR-L 105
Summary of the method: (§1)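 Lung cancer cell lines in 1536-well plates got either a single drug or a fixed anchor-drug dose together with five library-drug doses (not always all listed) in √10 steps, by pin tool, on the day after seeding. Nuclei were counted after 5 days, and relative viability is the treated-to-vehicle ratio of nuclei counts. Values are medians of duplicate plates.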

ChaGo-K-1 = system: ChaGo-K-1
Summary of the method: as §1

EPLC-272H = system: EPLC-272H
Summary of the method: as §1

HCC-15 = system: HCC-15
Summary of the method: as §1

HCC-366 = system: HCC-366
Summary of the method: as §1

HCC-44 = system: HCC-44
Summary of the method: as §1

HCC-78 = system: HCC-78
Summary of the method: as §1

HCC-827 = system: HCC-827
Summary of the method: as §1

LCLC-103H = system: LCLC-103H
Summary of the method: as §1

NCI-H1437 = system: NCI-H1437
Summary of the method: as §1

NCI-H1792 = system: NCI-H1792
Summary of the method: as §1

NCI-H1944 = system: NCI-H1944
Summary of the method: as §1

NCI-H2085 = system: NCI-H2085
Summary of the method: as §1

NCI-H2342 = system: NCI-H2342
Summary of the method: as §1

NCI-H3122 = system: NCI-H3122
Summary of the method: as §1

NCI-H358 = system: NCI-H358
Summary of the method: as §1

NCI-H661 = system: NCI-H661
Summary of the method: as §1

NCI-H727 = system: NCI-H727
Summary of the method: as §1

PC-14 = system: PC-14
Summary of the method: as §1

SK-LU-1 = system: SK-LU-1
Summary of the method: as §1

SK-MES-1 = system: SK-MES-1
Summary of the method: as §1

UMC-11 = system: UMC-11
Summary of the method: as §1

COCC1(CO)C(=O)C2CCN1CC2 (stereo not drawn) [PRIMA-1MET] + CC(=O)c1c(C)c2cnc(Nc3ccc(N4CCNCC4)cn3)nc2n(C2CCCC2)c1=O [Palbociclib] (partner 0.5 µM)
relative viability (COR-L 105; first compound 0.2 µM): 0.41
relative viability (COR-L 105; first compound 0.6325 µM): 0.363
relative viability (COR-L 105; first compound 2 µM): 0.385
relative viability (COR-L 105; first compound 6.325 µM): 0.41
relative viability (COR-L 105; first compound 20 µM): 0.16
relative viability (ChaGo-K-1; first compound 0.2 µM): 0.989
relative viability (ChaGo-K-1; first compound 0.6325 µM): 0.897
relative viability (ChaGo-K-1; first compound 2 µM): 0.917
relative viability (ChaGo-K-1; first compound 6.325 µM): 0.906
relative viability (ChaGo-K-1; first compound 20 µM): 0.836
relative viability (EPLC-272H; first compound 0.2 µM): 0.312
relative viability (EPLC-272H; first compound 0.6325 µM): 0.276
relative viability (EPLC-272H; first compound 2 µM): 0.329
relative viability (EPLC-272H; first compound 6.325 µM): 0.336
relative viability (EPLC-272H; first compound 20 µM): 0.289
relative viability (HCC-15; first compound 0.2 µM): 0.677
relative viability (HCC-15; first compound 0.6325 µM): 0.407
relative viability (HCC-15; first compound 2 µM): 0.687
relative viability (HCC-15; first compound 6.325 µM): 0.735
relative viability (HCC-15; first compound 20 µM): 0.652
relative viability (HCC-366; first compound 0.2 µM): 0.433
relative viability (HCC-366; first compound 0.6325 µM): 0.31
relative viability (HCC-366; first compound 2 µM): 0.382
relative viability (HCC-366; first compound 6.325 µM): 0.407
relative viability (HCC-366; first compound 20 µM): 0.0167
relative viability (HCC-44; first compound 0.2 µM): 1.02
relative viability (HCC-44; first compound 0.6325 µM): 0.873
relative viability (HCC-44; first compound 2 µM): 0.95
relative viability (HCC-44; first compound 6.325 µM): 0.954
relative viability (HCC-44; first compound 20 µM): 1.03
relative viability (HCC-78; first compound 0.2 µM): 0.449
relative viability (HCC-78; first compound 0.6325 µM): 0.507
relative viability (HCC-78; first compound 2 µM): 0.397
relative viability (HCC-78; first compound 6.325 µM): 0.446
relative viability (HCC-78; first compound 20 µM): 0.427
relative viability (HCC-827; first compound 0.2 µM): 0.573
relative viability (HCC-827; first compound 0.6325 µM): 0.462
relative viability (HCC-827; first compound 2 µM): 0.403
relative viability (HCC-827; first compound 6.325 µM): 0.506
relative viability (HCC-827; first compound 20 µM): 0.615
relative viability (LCLC-103H; first compound 0.2 µM): 0.488
relative viability (LCLC-103H; first compound 0.6325 µM): 0.376
relative viability (LCLC-103H; first compound 2 µM): 0.466
relative viability (LCLC-103H; first compound 6.325 µM): 0.484
relative viability (LCLC-103H; first compound 20 µM): 0.425
relative viability (NCI-H1437; first compound 0.2 µM): 0.322
relative viability (NCI-H1437; first compound 0.6325 µM): 0.313
relative viability (NCI-H1437; first compound 2 µM): 0.306
relative viability (NCI-H1437; first compound 6.325 µM): 0.324
relative viability (NCI-H1437; first compound 20 µM): 0.299
relative viability (NCI-H1792; first compound 0.2 µM): 0.633
relative viability (NCI-H1792; first compound 0.6325 µM): 0.596
relative viability (NCI-H1792; first compound 2 µM): 0.622
relative viability (NCI-H1792; first compound 6.325 µM): 0.7
relative viability (NCI-H1792; first compound 20 µM): 0.638
relative viability (NCI-H1944; first compound 0.2 µM): 0.357
relative viability (NCI-H1944; first compound 0.6325 µM): 0.285
relative viability (NCI-H1944; first compound 2 µM): 0.288
relative viability (NCI-H1944; first compound 6.325 µM): 0.312
relative viability (NCI-H1944; first compound 20 µM): 0.295
relative viability (NCI-H2085; first compound 0.2 µM): 0.526
relative viability (NCI-H2085; first compound 0.6325 µM): 0.515
relative viability (NCI-H2085; first compound 2 µM): 0.475
relative viability (NCI-H2085; first compound 6.325 µM): 0.472
relative viability (NCI-H2085; first compound 20 µM): 0.166
relative viability (NCI-H2342; first compound 0.2 µM): 0.602
relative viability (NCI-H2342; first compound 0.6325 µM): 0.452
relative viability (NCI-H2342; first compound 6.325 µM): 0.535
relative viability (NCI-H2342; first compound 20 µM): 0.463
relative viability (NCI-H3122; first compound 0.2 µM): 0.21
relative viability (NCI-H3122; first compound 0.6325 µM): 0.167
relative viability (NCI-H3122; first compound 2 µM): 0.184
relative viability (NCI-H3122; first compound 6.325 µM): 0.2
relative viability (NCI-H3122; first compound 20 µM): 0.201
relative viability (NCI-H358; first compound 0.2 µM): 0.148
relative viability (NCI-H358; first compound 0.6325 µM): 0.154
relative viability (NCI-H358; first compound 2 µM): 0.115
relative viability (NCI-H358; first compound 6.325 µM): 0.137
relative viability (NCI-H358; first compound 20 µM): 0.112
relative viability (NCI-H661; first compound 0.2 µM): 0.418
relative viability (NCI-H661; first compound 0.6325 µM): 0.391
relative viability (NCI-H661; first compound 2 µM): 0.414
relative viability (NCI-H661; first compound 6.325 µM): 0.423
relative viability (NCI-H661; first compound 20 µM): 0.446
relative viability (NCI-H727; first compound 0.2 µM): 0.629
relative viability (NCI-H727; first compound 0.6325 µM): 0.584
relative viability (NCI-H727; first compound 6.325 µM): 0.672
relative viability (NCI-H727; first compound 20 µM): 0.379
relative viability (PC-14; first compound 0.2 µM): 0.644
relative viability (PC-14; first compound 0.6325 µM): 0.476
relative viability (PC-14; first compound 2 µM): 0.509
relative viability (PC-14; first compound 6.325 µM): 0.525
relative viability (PC-14; first compound 20 µM): 0.0303
relative viability (SK-LU-1; first compound 0.2 µM): 0.395
relative viability (SK-LU-1; first compound 0.6325 µM): 0.385
relative viability (SK-LU-1; first compound 2 µM): 0.255
relative viability (SK-LU-1; first compound 6.325 µM): 0.376
relative viability (SK-LU-1; first compound 20 µM): 0.32
relative viability (SK-MES-1; first compound 0.2 µM): 0.323
relative viability (SK-MES-1; first compound 0.6325 µM): 0.371
relative viability (SK-MES-1; first compound 2 µM): 0.326
relative viability (SK-MES-1; first compound 6.325 µM): 0.291
relative viability (SK-MES-1; first compound 20 µM): 0.295
relative viability (UMC-11; first compound 0.2 µM): 0.31
relative viability (UMC-11; first compound 0.6325 µM): 0.362
relative viability (UMC-11; first compound 2 µM): 0.268
relative viability (UMC-11; first compound 6.325 µM): 0.356
relative viability (UMC-11; first compound 20 µM): 0.278

From the supplement of paper PMC10307832
